Data published in paper PMC7226586 (Journal of Medicinal Chemistry, 2019).
Entries after “also recorded” stand apart in the source; their conditions may differ.

Legend:
substrate-free CYP46A1 = substrate-free CYP46A1 (Homo sapiens, UniProt Q9Y6A2); assay: Spectral titrations of substrate-free CYP46A1; assay type: binding; details: for spectral response type, substrate-free CYP46A1: P450 difference spectrum
[1] = target: T1, purified recombinant CYP46A1 (Homo sapiens, UniProt Q9Y6A2); assay: CYP46A1 enzyme assay; assay type: biochemical; details: for shape of concentration dependence curve of CYP46A1 activity / CYP46A1 inhibition at the concentrations tested: 0–100 μM compound; for CYP46A1 inhibition at the 60–100 μM concentrations: 60–100 μM compound; for effect of co-incubation with L-Glu on CYP46A1 activation / maximal activation in the presence of L-Glu (fold): 100 μM L-Glu; for effect of co-incubation with L-Glu on CYP46A1 activation / effect of co-incubation with (S)-EFV on CYP46A1 activation / maximal activation in the presence of L-Glu (fold): 20 μM compound; for effect of co-incubation with (S)-EFV on CYP46A1 activation: 20 μM (S)-EFV
[2] = target: cholesterol-bound CYP46A1 (Homo sapiens, UniProt Q9Y6A2); assay: Spectral titrations of cholesterol-bound CYP46A1; assay type: binding; details: 20 μM cholesterol; for spectral response type, cholesterol-bound CYP46A1 / spectral response fit, cholesterol-bound CYP46A1: 18 °C
[3] = target: CYP46A1 allosteric sites (EFV binding site, Glu binding site) (Homo sapiens, UniProt Q9Y6A2); assay: Mapping of the allosteric site; assay type: biochemical; details: for allosteric site of binding: from co-incubations and mutants; for P450 activation with replacements within the Glu-binding site: CYP46A1 mutants K358A, F416A and Y427A; for P450 activation with replacements within the Glu-binding site / P450 activation with replacements within the EFV-binding site: 20 μM compound; for P450 activation with replacements within the EFV-binding site: CYP46A1 mutants R415A and F405A
CYP46A1 = CYP46A1 (Homo sapiens, UniProt Q9Y6A2); assay: Stopped-flow kinetics of compound binding to and release from CYP46A1; details: for mechanism of binding to substrate-free CYP46A1: stopped-flow experiments; for spectral binding at 15–30 μM, stopped-flow: substrate-free CYP46A1, 15–30 μM compound
[4] = plasma of EFV-treated subjects; cited from earlier work
[5] = cited from earlier work
[6] = concentrations mimicking the 600 mg/day EFV dose; cited from earlier work
protein (albumin) = details: cited from earlier work
[7] = within 1 h of an intraperitoneal administration; cited from earlier work
[8] = target: T1, purified recombinant CYP46A1; details: previous study; cited from earlier work
CYP46A1 in the brain = details: 0.32 (mg/da)/kg body dose, mice; cited from earlier work
[9] = Cholesterol binding to HPCD; details: read-out: Kd of cholesterol for HPCD; 50 mM KPi buffer (pH 7.2) containing 100 mM NaCl at 24 °C

Structure (SMILES) | fit of spectral titration curve, substrate-free CYP46A1 (substrate-free CYP46A1) | spectral response type, substrate-free CYP46A1 (substrate-free CYP46A1; 18 °C) | shape of concentration dependence curve of CYP46A1 activity [1] | CYP46A1 inhibition at the 60–100 μM concentrations [1] | fit of spectral titration curve, cholesterol-bound CYP46A1 [2] | spectral response type, cholesterol-bound CYP46A1 [2] | allosteric site of binding [3] | effect of co-incubation with L-Glu on CYP46A1 activation [1] | spectral response fit, cholesterol-bound CYP46A1 [2] | CYP46A1 activation compared with that with (S)-EFV [1] | other results
O=C1Nc2c(O)cc(Cl)cc2C(C#CC2CC2)(C(F)(F)F)O1 (racemic) [rac-1] | hyperbolic | type 2 | bell-shaped | did not inhibit | sigmoidal | reverse type 1-like | – | – | – | – | –
O=C1Nc2cc(O)c(Cl)cc2C(C#CC2CC2)(C(F)(F)F)O1 (racemic) [rac-2] | hyperbolic | type 2 | bell-shaped | did not inhibit | sigmoidal | reverse type 1-like | both EFV- and Glu-binding sites | synergistically activated | S | – | –
O=C1Nc2c(O)cc(Cl)cc2C(C#CC2(O)CC2)(C(F)(F)F)O1 (racemic) [rac-3] | hyperbolic | type 2 | essentially hyperbolic | – | hyperbolic | reverse type 1-like | mainly with the allosteric site for Glu | lower | – | – | P450 activation with replacements within the Glu-binding site [3]: largely reduced or abolished; P450 activation with replacements within the EFV-binding site [3]: not significantly affected; difference in the apparent spectral Kd versus (S)-EFV (substrate-free CYP46A1; substrate-free CYP46A1): 2 fold; effect of co-incubation with (S)-EFV on CYP46A1 activation [1]: synergistic CYP46A1 activation; kon lower than that of (S)-EFV (CYP46A1): 3 fold; mechanism of binding to substrate-free CYP46A1 (CYP46A1): conformational-selection; rates of binding (kobserved) lower than those for (S)-EFV (CYP46A1; substrate-free CYP46A1): ≥ 7 fold; spectral binding at 15–30 μM, stopped-flow (CYP46A1): essentially no spectral binding
O=C1Cc2ccc(Cl)cc2C(C#CC2CC2)(C(F)(F)F)O1 (racemic) [rac-5] | sigmoidal | type 1 | sigmoidal-like | – | – | did not seem to elicit a quantifiable spectral response; also recorded: no spectral response | both EFV- and Glu-binding sites | synergistically activated | – | lower | spectral response fit, substrate-free CYP46A1 (substrate-free CYP46A1; 18 °C): S; CYP46A1 inhibition at the concentrations tested [1]: did not inhibit
CC1Nc2ccc(Cl)cc2C(C#CC2CC2)(C(F)(F)F)O1 (racemic) [rac-7] | hyperbolic | type 1 | bell-shaped | – | – | did not seem to elicit a quantifiable spectral response; also recorded: no spectral response | mainly with the allosteric site for Glu | abolished | – | lower | P450 activation with replacements within the Glu-binding site [3]: largely reduced or abolished; P450 activation with replacements within the EFV-binding site [3]: not significantly affected; effect of co-incubation with (S)-EFV on CYP46A1 activation [1]: synergistic CYP46A1 activation; maximal activation in the presence of L-Glu (fold) [1]: abolished
O=C1CC(C#CC2CC2)(C(F)(F)F)c2cc(Cl)ccc2N1 (racemic) [rac-8] | hyperbolic | type 1 | bell-shaped | – | sigmoidal | reverse type 1-like | preferential EFV-site binding | synergistically activated | S | similar | –
CCCC#CC1(C(F)(F)F)OC(=O)Nc2ccc(Cl)cc21 (racemic) [rac-9] | hyperbolic | type 1 | bell-shaped | – | sigmoidal | reverse type 1-like | preferential EFV-site binding | synergistically activated | S | lower | –
O=C1Nc2cc(O)c(Cl)cc2[C@@](C#CC2CC2)(C(F)(F)F)O1 [7-hydroxyEFV, (S)-7-hydroxyEFV] | – | – | – | – | – | – | – | – | – | – | plasma level [4]: 8.8 to 225 ng/mL; cerebrospinal fluid level [5]: 0.63 ng/mL
O=C1Nc2c(O)cc(Cl)cc2[C@@](C#CC2CC2)(C(F)(F)F)O1 [(S)-1, (S)-8-hydroxyEFV] | hyperbolic | type 2 | bell-shaped | did not inhibit | sigmoidal | reverse type 1-like | both EFV- and Glu-binding sites | synergistically activated | S | – | plasma level [4]: 315 to 2160 ng/mL; cell damage or death in cell culture [6]: induce cell damage or death; cerebrospinal fluid level [5]: 3.1 to 5.3 ng/mL
FC(F)(F)[C@@]1(C#CC2CC2)OCNc2ccc(Cl)cc21 [(S)-6] | hyperbolic | type 1 | bell-shaped | – | – | did not seem to elicit a quantifiable spectral response; also recorded: no spectral response | mainly with the allosteric site for Glu | abolished | – | lower | P450 activation with replacements within the Glu-binding site [3]: largely reduced or abolished; P450 activation with replacements within the EFV-binding site [3]: not significantly affected; CYP46A1 inhibition at the concentrations tested [1]: did not inhibit; effect of co-incubation with (S)-EFV on CYP46A1 activation [1]: synergistic CYP46A1 activation; maximal activation in the presence of L-Glu (fold) [1]: abolished
O=C1Nc2ccc(Cl)cc2[C@@](C#CC2CC2)(C(F)(F)F)O1 [(S)-EFV, (S)-6-chloro-4-(cyclopropylethynyl)-4-(trifluoromethyl)-1,4-dihydro-2H-benzo[d][1,3]oxazin-2-one, reference compound] | hyperbolic | type 2 | bell-shaped | inhibitory | sigmoidal | reverse type 1 | – | – | S | – | protein (albumin)-bound in the blood (protein (albumin)): ≥ 99.6%; brain levels exceeding those in the plasma [7]: 4.6 times; plasma level [4]: 2170 to 3350 ng/mL; CYP46A1 inhibition at 100 μM [8]: almost completely inhibited; effect on CYP46A1 in the brain (CYP46A1 in the brain): inhibited; mechanism of binding to substrate-free CYP46A1 (CYP46A1): conformational-selection; spectral binding at 15–30 μM, stopped-flow (CYP46A1): measurable; cerebrospinal fluid level [5]: 13.9 to 19.5 ng/mL
CC(C)CCC[C@@H](C)[C@H]1CC[C@H]2[C@@H]3CC=C4C[C@@H](O)CC[C@]4(C)[C@H]3CC[C@]12C [cholesterol] | – | – | – | – | – | – | – | – | – | – | Kd [9]: 540 µM; Kd (substrate-free CYP46A1; Kd for substrate-free CYP46A1 (M), cholesterol, from an apparent Kd of 80 nM [20] after the correction for HPCD binding): 9e-09 M; calculated kon higher than that for rac-3 (CYP46A1): 1.9 fold; calculated kon lower than that for (S)-EFV (CYP46A1): 1.7 fold; koff (CYP46A1; read-out: experimental koff (s^–1)): 0.012 ± 0.002 s⁻¹
